Molecular target: T1, soybean lipoxygenase (Glycine max, UniProt P08170)
T1 construct: gene LOX1.1
Experiment: UV enzyme assay at […] nm, % inhibition at […]
Assay type: biochemical
Conditions: read-out: LOX % 100 μM or IC50

T1 sequence (P08170 whole entry): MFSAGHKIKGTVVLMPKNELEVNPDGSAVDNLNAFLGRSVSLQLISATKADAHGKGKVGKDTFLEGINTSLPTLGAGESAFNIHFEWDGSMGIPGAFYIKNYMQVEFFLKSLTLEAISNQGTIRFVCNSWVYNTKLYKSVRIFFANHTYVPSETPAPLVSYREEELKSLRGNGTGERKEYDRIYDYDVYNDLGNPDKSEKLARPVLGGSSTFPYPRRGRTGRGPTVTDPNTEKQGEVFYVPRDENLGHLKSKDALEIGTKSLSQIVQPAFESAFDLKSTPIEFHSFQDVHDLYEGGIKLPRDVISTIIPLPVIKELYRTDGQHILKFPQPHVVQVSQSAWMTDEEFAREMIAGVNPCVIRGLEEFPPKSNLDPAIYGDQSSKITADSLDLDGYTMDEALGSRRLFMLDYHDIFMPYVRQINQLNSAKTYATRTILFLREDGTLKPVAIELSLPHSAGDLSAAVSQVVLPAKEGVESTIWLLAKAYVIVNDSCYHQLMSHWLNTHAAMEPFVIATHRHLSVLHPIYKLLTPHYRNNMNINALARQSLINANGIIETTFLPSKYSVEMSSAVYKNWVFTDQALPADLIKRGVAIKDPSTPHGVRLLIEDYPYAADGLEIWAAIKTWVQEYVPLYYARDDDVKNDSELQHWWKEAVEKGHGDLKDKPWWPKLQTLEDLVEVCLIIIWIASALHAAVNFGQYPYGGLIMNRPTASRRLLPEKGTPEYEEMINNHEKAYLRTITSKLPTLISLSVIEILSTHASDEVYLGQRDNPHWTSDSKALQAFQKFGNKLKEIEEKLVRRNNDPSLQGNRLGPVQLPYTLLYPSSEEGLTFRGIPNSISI

## O=c1c(O)c(-c2ccc(O)cc2)oc2cc(O)ccc12 [resokaempferol, 3,7,4΄-trihydroxyflavone]
  inhibition at 100 µM: 90%
